Experimental data published in ChEMBL document CHEMBL1201862, “PubChem BioAssay data set” (2004).
The source made the active and inactive calls.

Legend:
[1] = biological target: T1, Eukaryotic translation initiation factor 2-alpha kinase 3 (Homo sapiens, UniProt Q9NZJ5); experiment: Dose response cell-based high-throughput screening assay to measure PERK inhibition. [Related pubchem assays: 1416 ]; type: functional
T1 sequence (Q9NZJ5 whole entry): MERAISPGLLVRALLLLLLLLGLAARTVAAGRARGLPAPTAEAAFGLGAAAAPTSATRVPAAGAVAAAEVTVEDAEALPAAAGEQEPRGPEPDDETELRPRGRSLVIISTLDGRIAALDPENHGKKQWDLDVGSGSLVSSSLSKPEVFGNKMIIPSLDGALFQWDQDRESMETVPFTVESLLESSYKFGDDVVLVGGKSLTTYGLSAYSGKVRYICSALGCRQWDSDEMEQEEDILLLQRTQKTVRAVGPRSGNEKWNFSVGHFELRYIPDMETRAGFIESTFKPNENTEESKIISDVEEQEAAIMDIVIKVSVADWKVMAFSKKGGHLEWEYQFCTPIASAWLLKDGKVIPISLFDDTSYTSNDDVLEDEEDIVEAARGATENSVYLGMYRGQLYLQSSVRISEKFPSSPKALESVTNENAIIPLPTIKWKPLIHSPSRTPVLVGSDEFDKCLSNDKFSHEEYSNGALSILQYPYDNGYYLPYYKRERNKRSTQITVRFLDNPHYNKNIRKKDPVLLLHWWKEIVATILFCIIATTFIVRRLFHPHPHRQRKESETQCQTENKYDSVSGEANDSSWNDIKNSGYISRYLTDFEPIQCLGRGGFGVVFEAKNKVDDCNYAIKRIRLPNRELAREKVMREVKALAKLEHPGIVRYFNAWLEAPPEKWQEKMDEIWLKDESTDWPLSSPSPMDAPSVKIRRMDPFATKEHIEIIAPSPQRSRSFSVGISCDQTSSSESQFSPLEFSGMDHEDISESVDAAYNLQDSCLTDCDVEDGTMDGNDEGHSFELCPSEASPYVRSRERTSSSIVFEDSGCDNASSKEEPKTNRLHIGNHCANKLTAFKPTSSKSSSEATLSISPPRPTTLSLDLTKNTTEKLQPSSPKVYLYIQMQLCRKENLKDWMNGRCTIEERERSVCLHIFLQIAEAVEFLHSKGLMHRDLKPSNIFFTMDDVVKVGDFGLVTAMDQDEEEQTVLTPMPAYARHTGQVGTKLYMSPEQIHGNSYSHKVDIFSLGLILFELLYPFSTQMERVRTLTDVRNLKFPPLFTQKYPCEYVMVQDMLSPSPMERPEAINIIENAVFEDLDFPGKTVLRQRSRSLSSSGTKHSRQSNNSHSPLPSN

[2] = biological target: T1, Eukaryotic translation initiation factor 2-alpha kinase 3; experiment: Counterscreen assay for PERK inhibitors: Dose response cell-based high throughput screening assay to measure inhibition of PERK at 6 hours. [Related pubchem assays: 1522, 1416 ]; type: functional
Aspartyl aminopeptidase = Aspartyl aminopeptidase (Plasmodium falciparum 3D7, UniProt Q8I2J3)
Procathepsin L = Procathepsin L (Homo sapiens, UniProt P07711)
[3] = test system: Streptococcus sp. 'group A'; experiment: growth inhibition of control SK(-) GAS strain, dose response, counter-screen for streptokinase expression inhibitor project, luminescence, kanamycin, BacTiterGlo, confirmation (AID 1900); type: functional, organism-based
[4] = biological target: T2, Heat shock factor protein 1 (Mus musculus, UniProt P38532); experiment: inhibition of MG132-induced HSE-luciferase signal, confirmation, cell-based, NIH3T3, luminescence, dose retest (AID 2382); type: functional;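 also: NIH3T3 fibroblasts with HSF1-driven luciferase reporter stressed by proteasome inhibitor MG132; luminescence from HSF1-driven luciferase expression after 8 hours of MG132 stress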
T2 sequence (P38532 whole entry): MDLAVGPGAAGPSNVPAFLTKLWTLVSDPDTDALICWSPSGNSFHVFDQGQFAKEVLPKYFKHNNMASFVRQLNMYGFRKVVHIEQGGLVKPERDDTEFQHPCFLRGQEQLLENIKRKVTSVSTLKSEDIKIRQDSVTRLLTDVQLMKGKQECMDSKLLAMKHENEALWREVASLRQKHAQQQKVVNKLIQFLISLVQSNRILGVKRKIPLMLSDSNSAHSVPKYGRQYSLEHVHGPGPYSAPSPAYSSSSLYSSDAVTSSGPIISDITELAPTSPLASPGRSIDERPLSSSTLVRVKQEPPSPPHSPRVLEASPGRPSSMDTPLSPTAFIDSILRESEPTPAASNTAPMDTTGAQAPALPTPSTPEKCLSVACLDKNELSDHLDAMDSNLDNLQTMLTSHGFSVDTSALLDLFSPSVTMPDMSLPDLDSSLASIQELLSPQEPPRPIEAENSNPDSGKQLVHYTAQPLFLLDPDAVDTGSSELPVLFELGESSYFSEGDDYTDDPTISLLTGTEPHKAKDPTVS

Streptococcus [5] = experiment: Luminescence Microorganism-Based Dose Response Follow up to Identify Compounds Cytotoxic to Streptococcus. [Related pubchem assays: 1677 (Project Summary), 1915, 1914, 1902 (Retest at Dose), 1900 (Counter Screen), 1662 (Primary HTS)]; type: functional, organism-based
Streptokinase A = biological target: T3, Streptokinase A (Streptococcus pyogenes serotype M1, UniProt P10520); experiment: S. pyogenes streptokinase expression inhibitors, potency, dose response, plasminogen activation absorbance, OD405 (AID 1914); type: functional, Streptococcus pyogenes M1 GAS;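 also: secreted streptokinase activity via plasminogen activation per viability signal from cell pellet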
T3 sequence (P10520 whole entry): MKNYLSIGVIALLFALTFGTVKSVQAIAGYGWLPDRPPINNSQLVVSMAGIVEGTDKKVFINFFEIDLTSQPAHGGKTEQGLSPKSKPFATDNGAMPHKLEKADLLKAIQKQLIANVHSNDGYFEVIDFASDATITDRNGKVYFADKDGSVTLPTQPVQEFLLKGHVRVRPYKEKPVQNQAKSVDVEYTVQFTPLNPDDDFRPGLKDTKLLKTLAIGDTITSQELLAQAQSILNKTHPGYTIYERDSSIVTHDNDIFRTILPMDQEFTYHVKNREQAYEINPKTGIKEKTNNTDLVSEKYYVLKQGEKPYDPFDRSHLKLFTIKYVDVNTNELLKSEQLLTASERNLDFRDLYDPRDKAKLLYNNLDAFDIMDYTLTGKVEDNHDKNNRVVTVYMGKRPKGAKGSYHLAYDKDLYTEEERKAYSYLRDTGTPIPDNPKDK

Streptococcus [6] = experiment: Group A Streptococcus viability loss, dose response, counter-screen for streptokinase expression inhibitor project, luminescence, BacTiterGlo (AID 1915); type: functional, organism-based;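 also: potency for reduction of bacterial viability or growth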
[7] = biological target: T4, Peroxisome proliferator-activated receptor gamma/Nuclear receptor corepressor 2 (Homo sapiens, UniProt P37231+Q9Y618); experiment: Counterscreen for NR2E3 inverse agonists: TR-FRET-based biochemical high throughput dose response assay to identify inverse agonists of the interaction between peroxisome proliferator-activated receptor gamma (PPARg) and nuclear receptor co-repressor 2 (NCOR2).; type: functional
[8] = biological target: T5, Photoreceptor-specific nuclear receptor (Homo sapiens, UniProt Q9Y5X4); experiment: NR2E3 inverse agonists, dose response, biochemical, TR-FRET (AID 463256); type: functional
[9] = biological target: T5, Photoreceptor-specific nuclear receptor; type: functional
Large T antigen = Large T antigen (Simian virus 40, UniProt P03070); type: functional, Betapolyomavirus macacae;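 also: Confirmatory-stage PubChem screen for compounds that inhibit SV40 T antigen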
[10] = biological target: T4, Peroxisome proliferator-activated receptor gamma/Nuclear receptor corepressor 2; type: functional
[11] = biological target: Induced myeloid leukemia cell differentiation protein Mcl-1 (Homo sapiens, UniProt Q07820); type: functional
[12] = biological target: Benomyl/methotrexate resistance protein (Candida albicans, UniProt P28873); experiment: CaMdr1 efflux pump inhibitor potency, dose response, singleplex, Cherry Pick1 hits (AID 588608); type: functional
NADPH oxidase 1 = biological target: T6, NADPH oxidase 1 (Homo sapiens, UniProt Q9Y5S8); type: functional, cell-based;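 also: Cell-based assay with luminescence read-out, IC50 derived from inhibitor dose-response curves; intracellular ROS from endogenous NOX1 in intact HT29 colon cancer cells; potency of inhibitors that lower the ROS luminescence signal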
T6 sequence (Q9Y5S8 whole entry): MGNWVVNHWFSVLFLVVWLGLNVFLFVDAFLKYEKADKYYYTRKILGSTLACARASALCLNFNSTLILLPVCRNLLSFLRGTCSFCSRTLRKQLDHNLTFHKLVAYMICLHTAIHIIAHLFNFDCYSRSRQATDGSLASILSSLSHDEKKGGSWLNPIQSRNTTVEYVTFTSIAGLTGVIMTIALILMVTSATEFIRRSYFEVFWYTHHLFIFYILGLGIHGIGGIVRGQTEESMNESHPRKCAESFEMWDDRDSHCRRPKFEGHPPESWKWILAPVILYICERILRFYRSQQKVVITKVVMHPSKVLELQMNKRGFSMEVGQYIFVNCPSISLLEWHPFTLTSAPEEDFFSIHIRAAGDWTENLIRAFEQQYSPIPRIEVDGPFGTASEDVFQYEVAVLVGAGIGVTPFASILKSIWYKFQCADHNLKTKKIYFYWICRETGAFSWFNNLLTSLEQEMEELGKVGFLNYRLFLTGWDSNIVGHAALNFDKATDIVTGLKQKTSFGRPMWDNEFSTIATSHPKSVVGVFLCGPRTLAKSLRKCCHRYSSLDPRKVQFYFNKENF

Cytochrome P450 2D6 = Cytochrome P450 2D6 (Homo sapiens, UniProt P10635); experiment: qHTS Assay for Inhibitors and Substrates of Cytochrome P450 2D6. [Related pubchem assays: 410 ]; type: ADME; conditions: read-out: Potency
Cytochrome P450 3A4 = Cytochrome P450 3A4 (Homo sapiens, UniProt P08684); conditions: Potency;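 also: confirmatory qHTS run detecting inhibitors and substrates of CYP3A4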
Cytochrome P450 2C9 = Cytochrome P450 2C9 (Homo sapiens, UniProt P11712); conditions: Potency
[13] = Luminescence Cell-Based Dose Response to Identify Activators of 5'UTR Stem-Loop Driven Prion Protein mRNA Translation in H4-C Neuroglioblastoma Cells. [Related pubchem assays: 1829 (Project Summary), 1814 (Primary HTS)]; type: functional
[14] = Luminescence Cell-Based Dose Response HTS to Identify Activators of Luciferase Translation or Activity in H4 […] Cells. [Related pubchem assays: 1829 (Project Summary), 1814 (Primary HTS)]; type: functional
H4 = experiment: Luminescence Cell-Based Dose Response HTS to Identify Activators of 5'UTR Stem-Loop Driven Prion Protein mRNA Translation in H4 Neuroglioblastoma Cells. [Related pubchem assays: 1829 (Project Summary), 1814 (Primary HTS)]; type: functional; conditions: Homo sapiens
[15] = Luminescence Cell-Based Dose Response to Identify Activators of Luciferase Translation or Activity in H4-C Neuroglioblastoma Cells. [Related pubchem assays: 1829 (Project Summary), 1814 (Primary HTS)]; type: functional
[16] = Luminescence Cell-Based Dose Confirmation to Identify Activators of 5'UTR Stem-Loop Driven Alpha-Synuclein mRNA Translation in H4 Neuroglioblastoma Cells. [Related pubchem assays: 1829 (Project Summary), 1814 (Primary HTS)]; type: functional
[17] = Luminescence Cell-Based Dose Confirmation HTS to Identify Activators of 5'UTR Stem-Loop Driven Alpha-Synuclein mRNA Translation in H4 Neuroglioblastoma Cells. [Related pubchem assays: 1829 (Project Summary), 1814 (Primary HTS)]; type: functional

Chain of Cytochrome P450 2D6 (P10635 whole entry): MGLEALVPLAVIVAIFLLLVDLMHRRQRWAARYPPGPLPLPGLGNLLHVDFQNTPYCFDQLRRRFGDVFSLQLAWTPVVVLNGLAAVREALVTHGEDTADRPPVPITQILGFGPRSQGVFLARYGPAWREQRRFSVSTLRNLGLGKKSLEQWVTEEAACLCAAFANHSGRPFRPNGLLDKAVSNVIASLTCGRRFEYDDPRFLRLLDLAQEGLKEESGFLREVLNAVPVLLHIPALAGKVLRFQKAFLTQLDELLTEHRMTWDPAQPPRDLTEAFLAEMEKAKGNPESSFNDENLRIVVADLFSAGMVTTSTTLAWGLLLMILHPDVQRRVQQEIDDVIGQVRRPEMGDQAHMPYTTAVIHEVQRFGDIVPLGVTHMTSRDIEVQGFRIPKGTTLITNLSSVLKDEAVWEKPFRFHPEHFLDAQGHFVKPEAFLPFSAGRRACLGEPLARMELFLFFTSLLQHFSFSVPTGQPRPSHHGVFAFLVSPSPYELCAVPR
T4 sequence (P37231 whole entry): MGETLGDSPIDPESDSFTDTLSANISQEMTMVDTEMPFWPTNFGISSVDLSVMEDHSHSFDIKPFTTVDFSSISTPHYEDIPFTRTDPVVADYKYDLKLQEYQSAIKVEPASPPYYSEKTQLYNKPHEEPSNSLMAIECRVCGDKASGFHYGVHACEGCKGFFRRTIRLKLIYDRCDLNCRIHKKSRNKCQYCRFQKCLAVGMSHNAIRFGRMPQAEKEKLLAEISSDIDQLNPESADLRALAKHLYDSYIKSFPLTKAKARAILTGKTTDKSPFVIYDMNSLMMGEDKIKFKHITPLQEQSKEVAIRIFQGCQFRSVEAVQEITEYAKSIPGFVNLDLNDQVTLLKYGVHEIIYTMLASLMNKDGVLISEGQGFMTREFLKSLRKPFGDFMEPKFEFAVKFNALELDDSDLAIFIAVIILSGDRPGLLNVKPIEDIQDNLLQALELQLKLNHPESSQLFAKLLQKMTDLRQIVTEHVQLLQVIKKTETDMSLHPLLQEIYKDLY
T4 sequence (Q9Y618 whole entry): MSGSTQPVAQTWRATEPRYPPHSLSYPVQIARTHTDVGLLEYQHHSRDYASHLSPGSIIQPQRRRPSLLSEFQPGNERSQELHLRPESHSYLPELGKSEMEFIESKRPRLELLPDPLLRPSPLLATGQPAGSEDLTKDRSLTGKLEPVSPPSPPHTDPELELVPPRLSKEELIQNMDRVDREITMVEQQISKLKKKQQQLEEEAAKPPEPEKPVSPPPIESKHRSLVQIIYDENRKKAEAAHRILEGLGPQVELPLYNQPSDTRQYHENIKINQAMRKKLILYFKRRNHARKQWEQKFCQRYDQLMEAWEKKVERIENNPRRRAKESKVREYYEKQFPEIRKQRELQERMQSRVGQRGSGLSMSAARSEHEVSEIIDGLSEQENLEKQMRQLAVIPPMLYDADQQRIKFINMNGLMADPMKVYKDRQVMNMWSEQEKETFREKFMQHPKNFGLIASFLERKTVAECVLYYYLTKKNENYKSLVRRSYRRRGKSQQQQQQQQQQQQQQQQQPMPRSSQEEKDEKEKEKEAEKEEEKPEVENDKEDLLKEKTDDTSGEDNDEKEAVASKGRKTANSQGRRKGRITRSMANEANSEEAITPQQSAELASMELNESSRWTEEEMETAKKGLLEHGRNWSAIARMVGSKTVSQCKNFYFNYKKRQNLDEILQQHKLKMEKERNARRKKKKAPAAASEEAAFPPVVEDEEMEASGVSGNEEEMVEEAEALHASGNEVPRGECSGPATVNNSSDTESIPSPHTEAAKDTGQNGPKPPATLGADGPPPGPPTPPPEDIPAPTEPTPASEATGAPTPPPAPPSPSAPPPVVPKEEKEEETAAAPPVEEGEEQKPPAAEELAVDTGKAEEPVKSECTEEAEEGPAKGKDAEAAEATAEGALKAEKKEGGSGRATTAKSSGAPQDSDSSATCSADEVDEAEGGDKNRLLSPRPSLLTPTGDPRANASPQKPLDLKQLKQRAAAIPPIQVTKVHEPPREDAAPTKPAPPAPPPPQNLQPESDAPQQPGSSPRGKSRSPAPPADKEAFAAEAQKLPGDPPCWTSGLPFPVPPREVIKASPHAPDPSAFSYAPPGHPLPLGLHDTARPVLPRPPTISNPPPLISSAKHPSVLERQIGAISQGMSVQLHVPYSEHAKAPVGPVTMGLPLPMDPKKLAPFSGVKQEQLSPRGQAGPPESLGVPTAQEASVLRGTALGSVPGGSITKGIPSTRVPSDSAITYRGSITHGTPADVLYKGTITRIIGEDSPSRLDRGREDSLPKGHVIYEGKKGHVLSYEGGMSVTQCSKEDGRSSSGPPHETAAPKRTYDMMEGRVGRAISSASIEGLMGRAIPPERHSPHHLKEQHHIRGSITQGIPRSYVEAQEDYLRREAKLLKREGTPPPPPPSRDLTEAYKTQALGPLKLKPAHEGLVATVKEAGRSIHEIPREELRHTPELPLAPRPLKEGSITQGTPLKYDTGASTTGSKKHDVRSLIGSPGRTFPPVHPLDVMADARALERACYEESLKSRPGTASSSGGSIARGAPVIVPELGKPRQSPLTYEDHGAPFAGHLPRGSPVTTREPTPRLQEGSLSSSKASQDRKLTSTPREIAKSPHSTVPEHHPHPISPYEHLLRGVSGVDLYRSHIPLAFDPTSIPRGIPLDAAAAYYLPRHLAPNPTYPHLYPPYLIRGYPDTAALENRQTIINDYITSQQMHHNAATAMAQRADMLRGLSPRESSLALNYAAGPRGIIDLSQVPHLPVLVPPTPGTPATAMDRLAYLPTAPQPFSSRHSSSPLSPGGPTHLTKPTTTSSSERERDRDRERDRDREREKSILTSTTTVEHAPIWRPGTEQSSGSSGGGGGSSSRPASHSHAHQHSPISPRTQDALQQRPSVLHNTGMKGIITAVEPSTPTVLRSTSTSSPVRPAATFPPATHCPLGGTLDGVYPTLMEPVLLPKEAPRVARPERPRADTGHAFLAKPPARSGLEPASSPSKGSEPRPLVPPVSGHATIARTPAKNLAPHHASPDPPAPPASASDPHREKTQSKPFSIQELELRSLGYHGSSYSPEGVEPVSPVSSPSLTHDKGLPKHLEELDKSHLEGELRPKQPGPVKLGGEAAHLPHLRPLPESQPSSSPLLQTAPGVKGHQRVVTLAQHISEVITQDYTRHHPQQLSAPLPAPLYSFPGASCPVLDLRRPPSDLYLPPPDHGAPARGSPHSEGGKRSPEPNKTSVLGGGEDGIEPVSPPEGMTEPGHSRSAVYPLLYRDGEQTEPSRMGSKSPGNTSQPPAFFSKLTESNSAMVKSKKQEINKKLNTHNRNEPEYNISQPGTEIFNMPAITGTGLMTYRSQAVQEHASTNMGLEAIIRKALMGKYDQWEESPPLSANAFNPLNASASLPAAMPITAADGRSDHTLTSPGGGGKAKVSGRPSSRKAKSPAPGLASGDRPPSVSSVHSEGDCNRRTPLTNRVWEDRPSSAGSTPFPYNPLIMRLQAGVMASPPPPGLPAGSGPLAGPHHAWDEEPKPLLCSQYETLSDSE
T5 sequence (Q9Y5X4 whole entry): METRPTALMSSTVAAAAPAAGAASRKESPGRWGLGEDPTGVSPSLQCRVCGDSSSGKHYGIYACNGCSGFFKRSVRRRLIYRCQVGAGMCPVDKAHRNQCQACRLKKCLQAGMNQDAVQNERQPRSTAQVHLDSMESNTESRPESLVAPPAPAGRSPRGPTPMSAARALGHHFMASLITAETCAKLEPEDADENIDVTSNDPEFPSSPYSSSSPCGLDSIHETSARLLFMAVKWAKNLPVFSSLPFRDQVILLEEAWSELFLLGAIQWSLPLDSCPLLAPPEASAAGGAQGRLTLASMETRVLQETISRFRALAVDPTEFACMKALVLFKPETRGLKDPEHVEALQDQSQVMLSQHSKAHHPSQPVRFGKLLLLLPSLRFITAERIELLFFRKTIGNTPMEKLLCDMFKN
Chain of Aspartyl aminopeptidase (Q8I2J3 whole entry): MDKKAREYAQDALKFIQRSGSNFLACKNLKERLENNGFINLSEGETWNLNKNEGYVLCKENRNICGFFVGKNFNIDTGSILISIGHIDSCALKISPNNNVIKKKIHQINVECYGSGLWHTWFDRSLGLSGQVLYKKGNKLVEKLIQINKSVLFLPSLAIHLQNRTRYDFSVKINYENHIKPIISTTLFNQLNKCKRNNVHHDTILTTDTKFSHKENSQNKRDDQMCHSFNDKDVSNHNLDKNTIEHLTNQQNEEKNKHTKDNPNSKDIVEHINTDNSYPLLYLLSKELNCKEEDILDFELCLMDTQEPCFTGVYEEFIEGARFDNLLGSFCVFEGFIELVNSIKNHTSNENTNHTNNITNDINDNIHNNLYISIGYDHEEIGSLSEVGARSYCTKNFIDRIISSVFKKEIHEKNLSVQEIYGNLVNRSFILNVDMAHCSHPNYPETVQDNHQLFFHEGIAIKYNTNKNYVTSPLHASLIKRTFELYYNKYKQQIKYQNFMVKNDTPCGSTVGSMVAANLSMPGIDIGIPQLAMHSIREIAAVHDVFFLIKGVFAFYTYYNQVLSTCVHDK
Chain of Benomyl/methotrexate resistance protein (P28873 whole entry): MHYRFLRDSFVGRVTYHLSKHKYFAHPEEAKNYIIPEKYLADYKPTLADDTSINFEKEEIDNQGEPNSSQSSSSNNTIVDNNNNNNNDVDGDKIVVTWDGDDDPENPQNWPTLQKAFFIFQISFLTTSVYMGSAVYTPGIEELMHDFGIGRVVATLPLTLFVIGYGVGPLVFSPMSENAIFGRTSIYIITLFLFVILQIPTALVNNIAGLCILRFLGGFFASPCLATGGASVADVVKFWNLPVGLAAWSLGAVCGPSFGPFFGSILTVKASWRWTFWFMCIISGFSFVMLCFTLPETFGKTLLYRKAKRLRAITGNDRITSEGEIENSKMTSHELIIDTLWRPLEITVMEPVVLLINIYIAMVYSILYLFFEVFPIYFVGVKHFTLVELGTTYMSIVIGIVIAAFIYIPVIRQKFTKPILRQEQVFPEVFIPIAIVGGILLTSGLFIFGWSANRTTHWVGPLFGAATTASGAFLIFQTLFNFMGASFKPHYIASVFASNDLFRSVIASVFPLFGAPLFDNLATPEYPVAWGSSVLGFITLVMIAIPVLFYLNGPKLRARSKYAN

Which results are given for `CC(C)Cn1c(S(=O)(=O)O)nc2ccccc21`?
EC50 [1]: > 55.7 µM (not active); EC50 [2]: > 55.7 µM (not active)

Which IC50 (Aspartyl aminopeptidase) does the source give for `Cc1ccc(Cl)cc1NC(=O)Nn1cnnc1` here?
Its IC50 is 1.7 µM (active).

And the IC50 (Procathepsin L)?
The IC50 was > 59.6 µM (not active).

For `Cc1cccc(NC(=O)C2SC(Nc3c(C)cccc3C)=C(C(=O)N3CCOCC3)C2=N)c1` (stereo not given), which EC50 [3] is on record?
The EC50 was 0.959 µM (active).

And the EC50 [4]?
The EC50 was > 195 µM (not active).

And the EC50 (Streptococcus [5])?
Its EC50 is 4.32 µM (active).

And the EC50 (Streptokinase A)?
The EC50 was 3.32 µM (active).

And the EC50 (Streptococcus [6])?
Its EC50 is > 150 µM (not active).

For `Cc1cc(C)c2nc(SCC(=O)NCCC3=CCCCC3)cc(C)c2c1`, which IC50 [7] is on record?
Its IC50 is > 39.8 µM (not active).

What about the IC50 [8] of the same molecule?
Its IC50 is > 39.8 µM (not active).

With `CCCOC(=O)CCCN1C(=O)/C(=C2\SC(=S)N(CCCC(=O)OCCC)C2=O)SC1=S` as the molecule, how does the EC50 [1] read?
The EC50 was > 55.7 µM (not active).

And the EC50 [2]?
Its EC50 is > 55.7 µM (not active).

What does the source list for `Cc1ccc(-c2c3c([nH]c(=S)c2C#N)CCCC3)o1`?
IC50 [9]: 1.09 µM (active); IC50 (Large T antigen): 35.4 µM (active); IC50 [10]: 1.72 µM (active); IC50 [11]: 2.4 µM (active); EC50 [12]: 6.14 µM (active)

With `c1ccc(-c2nc(-c3ccco3)[nH]c2-c2ccccc2)cc1` as the molecule, how does the IC50 (NADPH oxidase 1) read?
Its IC50 is > 17 µM (not active).

With `O=C(CSc1ccc(Cl)cc1)N1c2ccccc2Sc2ccccc21` as the molecule, how does the EC50 (Streptococcus [5]) read?
The EC50 was > 500 µM (not active).

Which AC50 (Cytochrome P450 2D6) does the source give for `COc1cc2ccc(=O)oc2c(O)c1OCC=C(C)C` [CAPENSIN] here?
The AC50 was 25.1 µM (inconclusive).

What about the AC50 (Cytochrome P450 3A4) of the same molecule?
Its AC50 is 12.6 µM (inconclusive).

What about the AC50 (Cytochrome P450 2C9) of the same molecule?
Its AC50 is 31.6 µM (inconclusive).

What does the source list for `Cc1cc(/C=N/NC(=O)c2cccc(F)c2)c(C)n1-c1ccccc1`?
EC50 [13]: 0.849 µM (active); EC50 [14]: < 0.1 µM (inconclusive); EC50 (H4): > 120 µM (not active); EC50 [15]: 0.217 µM (active); EC50 [16]: 2.7 µM (active)

Which EC50 [13] does the source give for `O=C(/C=C(/c1ccc(Cl)cc1)n1cncn1)c1ccccc1` here?
Its EC50 is > 12 µM (not active).

And the EC50 [17]?
Its EC50 is > 120 µM (not active).

What about the EC50 [14] of the same molecule?
The EC50 was > 120 µM (not active).

What about the EC50 (H4) of the same molecule?
The EC50 was > 120 µM (not active).

What about the EC50 [15] of the same molecule?
Its EC50 is > 12 µM (not active).

What about the EC50 [16] of the same molecule?
The EC50 was > 12 µM (not active).

Which AC50 (Cytochrome P450 2D6) does the source give for `Cc1cc(F)ccc1OC1C=CC(c2ccc3c(c2)OCO3)OC1CO` (stereo not given) here?
Its AC50 is 3.98 µM (inconclusive).
